The results in this text go back to patent US6982348B2, “Aminoethanol derivatives” (Takeda Pharmaceutical Company Limited, priority 2001, dated 2006).

For data set [1], the target named is T1, human CETP (Homo sapiens, UniProt P11597).
T1 sequence (P11597 18-493): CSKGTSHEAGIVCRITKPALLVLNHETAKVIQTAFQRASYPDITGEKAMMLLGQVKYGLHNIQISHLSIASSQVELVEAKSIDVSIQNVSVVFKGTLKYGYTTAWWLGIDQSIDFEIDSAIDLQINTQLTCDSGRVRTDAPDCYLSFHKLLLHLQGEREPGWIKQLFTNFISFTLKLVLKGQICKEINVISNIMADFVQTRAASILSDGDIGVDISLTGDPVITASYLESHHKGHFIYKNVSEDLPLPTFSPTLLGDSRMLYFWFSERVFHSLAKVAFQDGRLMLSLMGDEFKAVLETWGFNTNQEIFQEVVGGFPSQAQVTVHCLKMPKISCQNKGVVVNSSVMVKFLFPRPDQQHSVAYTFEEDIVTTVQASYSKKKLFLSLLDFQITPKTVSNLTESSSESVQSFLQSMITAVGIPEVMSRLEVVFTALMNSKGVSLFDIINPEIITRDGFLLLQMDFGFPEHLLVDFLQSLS
Briefly: Assay of cholesteryl ester transfer protein inhibitory activity, standard measurement system. The settings on record: BODIPY-CE-ME donor, VLDL-LDL acceptor, reaction at 37° C. for 30 min. The format is biochemical. As for the experimental part: (§1) Assay of Cholesteryl Ester Transfer Protein Inhibitory Activity
(§2) Fresh rabbit serum was adjusted with KBr to the density of (1.063 g/ml), and the fractions (VLDL-LDL, density<1.063 g/ml) floated by ultra-centrifugation operation (SW41—Ti, 40,000 rpm, 18 hrs., 4° C., Beckman model L8-55) were collected, subjected to dialysis against 0.15 M NaCl-10 mM Tris-HCl, pH 7.4 (TBS), sterilized by filtration through a filter and preserved at 4° C.
(§3) A solution of BODIPY-CE (0.6 mg) in chloroform was added to egg PC (phosphatidylcholine) ([…]) and triolein (2 mg), and after dissolution, the lipid was air dried under a nitrogen gas reflux and the solvent was removed under high vacuum. To this lipid was added an apo HDL solution (7.5 ml) obtained by defatting human HDL (1.063<d<1.21) with chloroform-methanol (2:1, v/v), dissolving in 6 M urea-containing TBS and dialyzing against TBS, and the mixture was subjected to sonication (BRANSON SONIFIRE CELL DISRUPTOR 200, dial 6, 5 min×4) to give BOBIPY-CE-ME. After centrifugation (CENTRIPREP 10), it was sterilized by filtration through a filter and preserved at 4° C.
The test compound (20% DMSO solution, 5 μl), TS (75 μl), acceptor lipoprotein (VLDL-LDL, 20 μl) and partially purified human CETP (25 μl) were mixed and incubated at 37° C. for 30 min. BODIPY-CE-ME (25 μl) was added (total 150 μl) and a transfer reaction was started. After reaction at 37° C. for 30 min., fluorescence intensity was measured at Ex. 490 nm/Em. 530 nm. The CETP inhibitory activity (% inhibition) was calculated by the following formula. [formula] 4) 50% Human Plasma-Containing Measurement System
(§4) The IC50 value was determined as a concentration showing 50% inhibition by plotting the logarithm of the concentration of test compound and % inhibition.

Data set [2] addresses T1, human CETP. Briefly: Assay of cholesteryl ester transfer protein inhibitory activity, 50% human plasma-containing measurement system. It is filed as biochemical. The conditions noted are these: BODIPY-CE-ME donor, VLDL-LDL acceptor, reaction at 37° C. for 60 min. As for the experimental part:
as §1, §2, §3
The test compound (20% DMSO solution, 5 μl), human plasma (75 μl), acceptor lipoprotein (VLDL-LDL, 20 μl) and partially purified human CETP (25 μl) were mixed and incubated at 37° C. for 30 min. BODIPY-CE-ME (25 μl) was added (total 150 μl) and a transfer reaction was started. After reaction at 37° C. for 60 min., fluorescence intensity was measured at Ex. 490 nm/Em. 530 nm. The CETP inhibitory activity (% inhibition) was calculated by the following formula. [formula]
as §4

In the case of `O=C(N[C@H](Cc1cccc(OC(F)(F)C(F)F)c1)[C@@H](O)c1ccc(F)cc1)c1cccc2c1C=CCCC2` (racemic) [Example 122, N-[(1RS,2SR)-2-(4-fluorophenyl)-2-hydroxy-1-[3-(1,1,2,2-tetrafluoroethoxy)benzyl]ethyl]-6,7-dihydro-5H-benzo[a]cycloheptene-1-carboxamide], the melting point (commonly the temperature of the solid-liquid transition) fell in the range of 176 to 177 °C. The concentration for half-maximal inhibition (IC50) (as a rule, the midpoint of a concentration-inhibition curve) against human CETP [1] amounted to 0.015 µM. Further, at human CETP [2], the IC50 is 0.49 µM.

With `O=C(NC(Cc1cccc(OC(F)(F)C(F)F)c1)C(O)c1ccc(F)cc1)c1cccc2c1C=CCCC2` (stereo not drawn) [229(+)-form], the values for the IC50 at human CETP [1] and on human CETP [2] were 0.0086 µM and 0.24 µM, respectively.

As for `O=C(N[C@H](Cc1ccc2c(c1)OC(F)(F)C(F)(F)O2)[C@@H](O)c1ccc(F)cc1)c1ccc(F)c2ccccc12` (racemic) [Example 271, 4-fluoro-N-{(1RS,2SR)-2-(4-fluorophenyl)-2-hydroxy-1-[(2,2,3,3-tetrafluoro-2,3-dihydro-1,4-benzodioxin-6-yl)methyl]ethyl}-1-naphthamide], the melting point was 193 to 194 °C. The compound further had an IC50 on human CETP [1] of 0.17 µM. This compound also yielded an IC50 on human CETP [2] of 1.4 µM.

As for `O=C(N[C@H](Cc1cccc(OC(F)(F)C(F)F)c1)[C@@H](O)c1ccc(Oc2ccccc2)cc1)c1cccc2c1C=CCCC2` (racemic) [Example 217, N-((1RS,2SR)-2-hydroxy-2-(4-(phenyloxy)phenyl)-1-((3-((1,1,2,2-tetrafluoroethyl)oxy)phenyl)methyl)ethyl)-6,7-dihydro-5H-benzo[a]cycloheptene-1-carboxamide], the IC50 is 0.0084 µM at human CETP [1] and 0.08 µM on human CETP [2].

As for `O=C(NC(Cc1ccc(C(F)(F)F)cc1)C(O)c1ccc(F)cc1)c1ccc(F)c2ccccc12` (stereo not drawn) [227(+)-form], the figures for the IC50 at human CETP [1] and against human CETP [2] were 0.21 µM and 1.7 µM, respectively.

In the case of `O=C(N[C@H](Cc1ccc(C(F)(F)F)cc1)[C@@H](O)c1ccc(Oc2ccccc2)cc1)c1cccc2c1C=CCCC2` (racemic) [Example 210, N-((1RS,2SR)-2-hydroxy-2-(4-phenoxyphenyl)-1-((4-(trifluoromethyl)phenyl)methyl)ethyl)-6,7-dihydro-5H-benzo[a]cycloheptene-1-carboxamide], the values for the IC50 against human CETP [1] and against human CETP [2] were 0.088 µM and 1.4 µM, respectively.

The compound `O=C(N[C@H](Cc1cccc(OC(F)(F)C(F)F)c1)[C@@H](O)c1ccc(F)cc1)c1cccc2c1C=CCCCC2` (racemic) [Example 126, N-[(1RS,2SR)-2-(4-fluorophenyl)-2-hydroxy-1-[3-(1,1,2,2-tetrafluoroethoxy)benzyl]ethyl]-5,6,7,8-tetrahydrobenzo[a]cyclooctene-1-carboxamide] registered a melting point of 189 to 190 °C. The same compound registered an IC50 against human CETP [1] of 0.07 µM. This compound also yielded an IC50 on human CETP [2] of 1 µM.

`O=C(NC(Cc1ccc(C(F)(F)F)cc1)C(O)c1ccc(F)cc1)c1cccc2ccccc12` (stereo not drawn) [226(+)-form]: the IC50 came out at 0.4 µM against human CETP [1] and 4.2 µM on human CETP [2].

Turning to `O=C(N[C@H](Cc1cccc(OC(F)(F)C(F)F)c1)[C@@H](O)c1ccnc(F)c1)c1cccc2c1C=CCCC2` (racemic) [Example 220, N-((1RS,2SR)-2-(2-fluoropyridin-4-yl)-2-hydroxy-1-((3-(1,1,2,2-tetrafluoroethoxy)phenyl)methyl)ethyl)-6,7-dihydro-5H-benzo[a]cycloheptene-1-carboxamide], the melting point fell in the range of 159 to 160 °C. Half-maximal inhibition at human CETP [1] (IC50) required 0.03 µM. At human CETP [2], half-maximal inhibition (IC50) required 1.4 µM.

`O=C(N[C@H](Cc1cccc(OC(F)(F)C(F)F)c1)[C@@H](O)c1ccc(F)cc1)c1cccc2c1CCCCC2` (racemic) [Example 124, N-[(1RS,2SR)-2-(4-fluorophenyl)-2-hydroxy-1-[3-(1,1,2,2-tetrafluoroethoxy)benzyl]ethyl]-6,7,8,9-tetrahydro-5H-benzo[a]cycloheptene-1-carboxamide]: the melting point was 194 to 195 °C. The same compound yielded an IC50 against human CETP [1] of 0.046 µM. Further, the IC50 against human CETP [2] was found to be 2.4 µM.

In the case of `O=C(NC(Cc1cccc(OC(F)(F)C(F)F)c1)C(O)c1ccc(F)cc1)c1ccc(F)c2ccccc12` (stereo not drawn) [228(+)-form], the IC50 was 0.03 µM against human CETP [1] and 0.99 µM on human CETP [2].

With `CC(C)(C)c1ccc(C[C@@H](NC(=O)c2cccc3c(Cl)cccc23)[C@@H](O)c2cccc(Cl)c2)cc1` (racemic) [Example 274, N-[(1RS,2SR)-1-(4-tert-butylbenzyl)-2-(3-chlorophenyl)-2-hydroxyethyl]-5-chloro-1-naphthamide], the melting point fell in the range of 112 to 113 °C. This compound returned an IC50 on human CETP [1] of 0.052 µM. The compound further showed an IC50 against human CETP [2] of 3.1 µM.

Regarding `CC(C)c1ccc(C[C@@H](NC(=O)c2cccc3c2C=CCCC3)[C@@H](O)c2ccc(F)cc2)cc1` (racemic) [Example 155, N-[(1RS,2SR)-2-(4-fluorophenyl)-2-hydroxy-1-(4-isopropylbenzyl)ethyl]-6,7-dihydro-5H-benzo[a]cycloheptene-1-carboxamide], the melting point lay within 168 to 169 °C. Inhibition against human CETP [1] was half-maximal at 0.095 µM (IC50). On human CETP [2], this compound displayed an IC50 of 2.1 µM.

In turn, `O=C(N[C@H](Cc1cccc(OC(F)(F)C(F)F)c1)[C@@H](O)c1cccc(F)n1)c1cccc2c1C=CCCC2` (racemic) [Example 222, N-((1RS,2RS)-2-(6-fluoropyridin-2-yl)-2-hydroxy-1-((3-(1,1,2,2-tetrafluoroethoxy)phenyl)methyl)ethyl)-6,7-dihydro-5H-benzo[a]cycloheptene-1-carboxamide] registered a melting point of 151 to 152 °C. This compound also came in with an IC50 against human CETP [1] of 0.079 µM.

`CCc1cc(Oc2ccc([C@H](O)[C@@H](Cc3cccc(OC(F)(F)C(F)F)c3)NC(=O)c3cccc4c3C=CCCC4)cc2)ccc1Cl` (racemic) [Example 218, N-((1RS,2SR)-2-(4-((4-chloro-3-ethylphenyl)oxy)phenyl)-2-hydroxy-1-((3-((1,1,2,2-tetrafluoroethyl)oxy)phenyl)methyl)ethyl)-6,7-dihydro-5H-benzo[a]cycloheptene-1-carboxamide] had a melting point of 116 to 117 °C. The IC50 on human CETP [1] was found to be 0.056 µM. In addition, the IC50 on human CETP [2] amounted to 0.66 µM.

Consider `O=C(N[C@H](Cc1cccc(OC(F)(F)C(F)F)c1)[C@@H](O)c1ccc(F)cc1)c1ccc(F)c2ccccc12` (racemic) [Example 125, 4-fluoro-N-[(1RS,2SR)-2-(4-fluorophenyl)-2-hydroxy-1-[3-(1,1,2,2-tetrafluoroethoxy)benzyl]ethyl]naphthalene-1-carboxamide], for which the melting point was 186 to 187 °C. Half-maximal inhibition against human CETP [1] (IC50) required 0.051 µM. For the same compound, on human CETP [2], the midpoint of inhibition, the IC50, lay at 2 µM.

The compound `O=C(N[C@H](Cc1cccc(OC(F)(F)C(F)F)c1)[C@@H](O)c1ccc(Cl)cc1)c1cccc2c1C=CCCC2` (racemic) [Example 216, N-[(1RS,2SR)-2-(4-chlorophenyl)-2-hydroxy-1-[3-(1,1,2,2-tetrafluoroethoxy)benzyl]ethyl]-6,7-dihydro-5H-benzo[a]cycloheptene-1-carboxamide] registered a melting point of 182 to 183 °C. Also, inhibition at human CETP [1] was half-maximal at 0.04 µM (IC50). The compound further displayed an IC50 at human CETP [2] of 0.7 µM.

With `O=C(N[C@H](Cc1cccc(OC(F)(F)C(F)F)c1)[C@@H](O)c1ccc(F)cc1)c1cccc2c1C=CCC2` (racemic) [Example 123, N-[(1RS,2SR)-2-(4-fluorophenyl)-2-hydroxy-1-[3-(1,1,2,2-tetrafluoroethoxy)benzyl]ethyl]-5,6-dihydronaphthalene-1-carboxamide], the melting point is 165 to 166 °C. 0.035 µM corresponded to half-maximal inhibition against human CETP [1] (IC50). Further, half-maximal inhibition against human CETP [2] (IC50) required 0.95 µM.
